Measurements reported in US6362369B1, “Phthalic acid diamide derivatives fluorine-containing aniline compounds as starting material, agricultural and horticultural insecticides, and a method for application of the insecticides” (Nihon Nohyaku Co., Ltd., priority 1997, dated 2002).

Legend:
Type in all cases: in vivo
[1] = test system: diamondback moth (Plutella xylostella); assay: Insecticidal effect on diamondback moth (Test Example 1); conditions: for Insecticidal effect, Test Example 1 / Insecticidal effect (Test Example 1), judged from mortality: diamondback moth; for Insecticidal effect (Test Example 1), judged from mortality: judged by the criterion of Test Example 1; for Insecticidal effect on diamondback moth (Test Example 1), judged grade: mortality judged according to the criterion shown in Test Example 1
How it was run: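 Triplicate groups of 10 insects were scored: six days after immersion of oviposited Chinese cabbage seedlings and holding at 25 °C post air-drying, hatched larvae were counted. Mortality derived from these counts and insecticidal effect judged by a set criterion.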

[2] = test system: common cutworm (Spodoptera Litura); assay: Insecticidal effect on common cutworm (Test Example 2); conditions: 500 ppm, 25° C.; for Insecticidal effect, Test Example 2: cabbage leaf immersed; for Insecticidal effect, Test Example 2 / Insecticidal effect on common cutworm (Test Example 2), judged grade: eight days after inoculation; for Insecticidal effect (Test Example 2), judged from mortality / Insecticidal effect on common cutworm (Test Example 2), judged grade: cabbage leaf dip; for Insecticidal effect (Test Example 2), judged from mortality: 8 days after inoculation; for Insecticidal effect on common cutworm (Test Example 2), judged grade: second-instar larvae
How it was run: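 Second-instar larvae placed in 9 cm Petri dishes with air-dried treated material, held at 25 °C. Dead and live insects counted 8 days after inoculation; mortality calculated and scored against a set criterion. Triplicate groups of 10 insects.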

[3] = test system: rice leafroller (Cnaphalocrocis medinalis); assay: Insecticidal effect on rice leafroller (Test Example 3); conditions: 500 ppm, 25° C., humidity 70%; for Insecticidal effect, Test Example 3: rice lamina immersed; for Insecticidal effect, Test Example 3 / Insecticidal effect on rice leafroller (Test Example 3), judged grade: four days after inoculation; for Insecticidal effect (Test Example 3), judged from mortality / Insecticidal effect on rice leafroller (Test Example 3), judged grade: rice lamina dip; for Insecticidal effect (Test Example 3), judged from mortality: 4 days after inoculation; for Insecticidal effect on rice leafroller (Test Example 3), judged grade: third-instar larvae
How it was run: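 Insecticidal effect is judged by a predefined criterion from dead/alive counts four days after infesting air-dried lamina with third-instar larvae, kept on moistened filter paper at 25° C, 70% humidity.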

[4] = judged by the mortality criterion of Test Example 1
[5] = second-instar larvae of common cutworm
[6] = third-instar larvae of rice leafroller
[7] = mortality judged by criterion of Test Example 1
[8] = common cutworm second-instar larvae
[9] = rice leafroller third-instar larvae

Structure (SMILES): Cc1cc(C(F)(F)C(F)(F)C(F)(F)F)ccc1NC(=O)c1cccc(Cl)c1C(=O)NC(C)C [compound 130]
- Insecticidal effect, Test Example 1 [1, 4]: A (100)
- Insecticidal effect, Test Example 2 [2, 5]: A (100)
- Insecticidal effect, Test Example 3 [3, 6]: A (100)

Structure (SMILES): Cc1c(NC(=O)c2c(I)cccc2C(=O)NC(C)C)cccc1C(F)(F)F [compound 435]
- Insecticidal effect, Test Example 1 [1, 4]: A (100)
- Insecticidal effect, Test Example 2 [2, 5]: B (99-90)
- Insecticidal effect, Test Example 3 [3, 6]: A (100)

Structure (SMILES): CC(C)(C)NC(=O)c1c(I)cccc1C(=O)Nc1cc2c(cc1Cl)OC(F)(F)C(F)(F)O2 [compound 1645]
- Insecticidal effect (Test Example 1), judged from mortality [1]: A (100)
- Insecticidal effect (Test Example 2), judged from mortality [2, 5]: A (100)
- Insecticidal effect (Test Example 3), judged from mortality [3, 6]: A (100)

Structure (SMILES): Cc1cc(C(F)(F)C(F)(F)F)ccc1NC(=O)c1ccccc1C(=O)NC(C)CO (stereo not drawn) [compound 1294]
- Insecticidal effect, Test Example 1 [1, 7]: A (100)
- Insecticidal effect, Test Example 2 [2, 8]: A (100)
- Insecticidal effect, Test Example 3 [3, 9]: A (100)

Structure (SMILES): Cc1cc(C(F)(F)C(F)(F)F)ccc1NC(=O)c1cccc(I)c1C(=O)NCC(C)C [compound 1005]
- Insecticidal effect, Test Example 1 [1, 7]: A (100)
- Insecticidal effect, Test Example 2 [2, 8]: A (100)
- Insecticidal effect, Test Example 3 [3, 9]: A (100)

Structure (SMILES): Cc1cc(OC(F)(F)C(F)Cl)ccc1NC(=O)c1cccc(Cl)c1C(=O)NC(C)C (stereo not drawn) [compound 143]
- Insecticidal effect, Test Example 1 [1, 4]: A (100)
- Insecticidal effect, Test Example 2 [2, 5]: A (100)
- Insecticidal effect, Test Example 3 [3, 6]: A (100)

Structure (SMILES): CCCN(CCC)C(=O)c1c(I)cccc1C(=O)Nc1ccc(C(F)(F)C(F)(F)F)cc1C [compound 1044]
- Insecticidal effect, Test Example 1 [1, 7]: A (100)
- Insecticidal effect, Test Example 2 [2, 8]: A (100)
- Insecticidal effect, Test Example 3 [3, 9]: A (100)

Structure (SMILES): CC(C)NC(=O)c1c(C(=O)Nc2ccc3c(c2)OC(F)(F)O3)cccc1[N+](=O)[O-] [compound 1100]
- Insecticidal effect, Test Example 1 [1, 7]: A (100)
- Insecticidal effect, Test Example 2 [2, 8]: C (89-80)
- Insecticidal effect, Test Example 3 [3, 9]: A (100)

Structure (SMILES): CC(C)NC(=O)c1cccc(Cl)c1C(=O)Nc1ccc(C(F)(F)C(F)(F)F)cc1 [compound 894]
- Insecticidal effect on diamondback moth (Test Example 1), judged grade [1]: A (100)
- Insecticidal effect on common cutworm (Test Example 2), judged grade [2]: A (100)
- Insecticidal effect on rice leafroller (Test Example 3), judged grade [3]: A (100)

Structure (SMILES): CCN(CC)C(=O)c1c(F)cccc1C(=O)Nc1ccc(C(F)(C(F)(F)F)C(F)(F)F)cc1C [compound 1526]
- Insecticidal effect (Test Example 1), judged from mortality [1]: A (100)
- Insecticidal effect (Test Example 2), judged from mortality [2, 5]: A (100)
- Insecticidal effect (Test Example 3), judged from mortality [3, 6]: A (100)

Structure (SMILES): Cc1cc(C(F)(F)C(F)(F)F)ccc1NC(=O)c1cccc(I)c1C(=O)N(C)Cc1ccccc1 [compound 1438]
- Insecticidal effect, Test Example 1 [1, 7]: A (100)
- Insecticidal effect, Test Example 2 [2, 8]: A (100)
- Insecticidal effect, Test Example 3 [3, 9]: A (100)

Structure (SMILES): CC(C)NC(=O)c1c(Cl)cccc1C(=O)Nc1cccc([S+]([O-])C(F)(F)F)c1 (stereo not drawn) [compound 100]
- Insecticidal effect, Test Example 1 [1, 4]: A (100)
- Insecticidal effect, Test Example 2 [2, 5]: A (100)
- Insecticidal effect, Test Example 3 [3, 6]: A (100)

Structure (SMILES): Cc1cc(C(F)(F)C(F)(F)F)ccc1NC(=O)c1cccc(Cl)c1C(=O)NC(C)(C)C#Cc1ccccn1 [compound 1587]
- Insecticidal effect (Test Example 1), judged from mortality [1]: A (100)
- Insecticidal effect (Test Example 2), judged from mortality [2, 5]: A (100)
- Insecticidal effect (Test Example 3), judged from mortality [3, 6]: A (100)

Structure (SMILES): CC(C)NC(=O)c1c(Cl)cccc1C(=O)Nc1ccc(SC(F)(F)Br)cc1 [compound 1110]
- Insecticidal effect, Test Example 1 [1, 7]: A (100)
- Insecticidal effect, Test Example 2 [2, 8]: C (89-80)
- Insecticidal effect, Test Example 3 [3, 9]: A (100)

Structure (SMILES): CC(C)NC(=O)c1c(F)cccc1C(=O)Nc1ccc(C(F)(F)C(F)(F)C(F)(F)F)cc1Cl [compound 505]
- Insecticidal effect on diamondback moth (Test Example 1), judged grade [1]: A (100)
- Insecticidal effect on common cutworm (Test Example 2), judged grade [2]: A (100)
- Insecticidal effect on rice leafroller (Test Example 3), judged grade [3]: A (100)

Structure (SMILES): Cc1cc(C(F)(F)C(F)(F)F)ccc1NC(=O)c1cccc(OC(F)(F)F)c1C(=O)NC(C)C [compound 1191]
- Insecticidal effect, Test Example 1 [1, 7]: A (100)
- Insecticidal effect, Test Example 2 [2, 8]: A (100)
- Insecticidal effect, Test Example 3 [3, 9]: A (100)

Structure (SMILES): CC(C)NC(=O)c1c(Cl)cccc1C(=O)Nc1ccc(Cl)cc1Cl [compound 112]
- Insecticidal effect, Test Example 1 [1, 4]: A (100)
- Insecticidal effect, Test Example 2 [2, 5]: A (100)
- Insecticidal effect, Test Example 3 [3, 6]: A (100)

Structure (SMILES): Cc1c(Cl)cccc1NC(=O)c1cccc(I)c1C(=O)NC(C)C [compound 361]
- Insecticidal effect, Test Example 1 [1, 4]: A (100)
- Insecticidal effect, Test Example 2 [2, 5]: A (100)
- Insecticidal effect, Test Example 3 [3, 6]: A (100)

Structure (SMILES): CCc1cc(OC(F)(F)F)ccc1NC(=O)c1cccc(I)c1C(=O)NC(C)(C)C [compound 1211]
- Insecticidal effect, Test Example 1 [1, 7]: A (100)
- Insecticidal effect, Test Example 2 [2, 8]: A (100)
- Insecticidal effect, Test Example 3 [3, 9]: A (100)

Structure (SMILES): CC(C)NC(=O)c1c(I)cccc1C(=O)Nc1ccc(SCC(F)(F)F)cc1 [compound 355]
- Insecticidal effect, Test Example 1 [1, 4]: A (100)
- Insecticidal effect, Test Example 2 [2, 5]: C (89-80)
- Insecticidal effect, Test Example 3 [3, 6]: A (100)

Structure (SMILES): CCNC(=O)c1c(C(=O)Nc2ccc(OC(F)F)cc2C)cccc1[N+](=O)[O-] [compound 11]
- Insecticidal effect, Test Example 1 [1, 4]: A (100)
- Insecticidal effect, Test Example 2 [2, 5]: C (89-80)
- Insecticidal effect, Test Example 3 [3, 6]: C (89-80)

Structure (SMILES): Cc1c(Cl)ccc(NC(=O)c2cccc([N+](=O)[O-])c2C(=O)NC(C)C)c1C [compound 669]
- Insecticidal effect on diamondback moth (Test Example 1), judged grade [1]: A (100)
- Insecticidal effect on common cutworm (Test Example 2), judged grade [2]: D (79-50)
- Insecticidal effect on rice leafroller (Test Example 3), judged grade [3]: A (100)

Structure (SMILES): Cc1cc(OCC(F)(F)C(F)F)ccc1NC(=O)c1cccc(Br)c1C(=O)NC(C)C [compound 283]
- Insecticidal effect, Test Example 1 [1, 4]: A (100)
- Insecticidal effect, Test Example 2 [2, 5]: A (100)
- Insecticidal effect, Test Example 3 [3, 6]: A (100)

Structure (SMILES): Cc1cc(OC(F)(F)C(Cl)(Cl)Cl)ccc1NC(=O)c1cccc(F)c1C(=O)NC(C)C [compound 501]
- Insecticidal effect on diamondback moth (Test Example 1), judged grade [1]: A (100)
- Insecticidal effect on common cutworm (Test Example 2), judged grade [2]: A (100)
- Insecticidal effect on rice leafroller (Test Example 3), judged grade [3]: A (100)

Structure (SMILES): CC(C)NC(=O)c1c(I)cccc1C(=O)Nc1ccc(C=C(Cl)C(F)(F)F)cc1 [compound 917]
- Insecticidal effect on diamondback moth (Test Example 1), judged grade [1]: A (100)
- Insecticidal effect on common cutworm (Test Example 2), judged grade [2]: A (100)
- Insecticidal effect on rice leafroller (Test Example 3), judged grade [3]: A (100)

Structure (SMILES): CCN(CC)C(=O)c1c(I)cccc1C(=O)Nc1ccc(OC(F)(F)C(F)F)cc1C [compound 1556]
- Insecticidal effect (Test Example 1), judged from mortality [1]: A (100)
- Insecticidal effect (Test Example 2), judged from mortality [2, 5]: A (100)
- Insecticidal effect (Test Example 3), judged from mortality [3, 6]: A (100)

Structure (SMILES): Cc1cc(NC(=O)c2cccc(I)c2C(=O)NC(C)C)ccc1C(F)(F)C(F)(F)F [compound 1563]
- Insecticidal effect (Test Example 1), judged from mortality [1]: A (100)
- Insecticidal effect (Test Example 2), judged from mortality [2, 5]: A (100)
- Insecticidal effect (Test Example 3), judged from mortality [3, 6]: A (100)

Structure (SMILES): Cc1cc(OC(F)(F)C(F)Cl)ccc1NC(=O)c1c(F)cccc1C(=O)NC(C)C (stereo not drawn) [compound 567]
- Insecticidal effect on diamondback moth (Test Example 1), judged grade [1]: A (100)
- Insecticidal effect on common cutworm (Test Example 2), judged grade [2]: D (79-50)
- Insecticidal effect on rice leafroller (Test Example 3), judged grade [3]: D (79-50)

Structure (SMILES): CCN(CC)C(=O)c1c(F)cccc1C(=O)Nc1ccc(Cl)cc1C [compound 1546]
- Insecticidal effect (Test Example 1), judged from mortality [1]: A (100)
- Insecticidal effect (Test Example 2), judged from mortality [2, 5]: C (89-80)
- Insecticidal effect (Test Example 3), judged from mortality [3, 6]: A (100)

Structure (SMILES): Cc1ccc(Cl)cc1NC(=O)c1cccc([N+](=O)[O-])c1C(=O)NC1CC1 [compound 851]
- Insecticidal effect on diamondback moth (Test Example 1), judged grade [1]: A (100)
- Insecticidal effect on common cutworm (Test Example 2), judged grade [2]: D (79-50)
- Insecticidal effect on rice leafroller (Test Example 3), judged grade [3]: A (100)

Structure (SMILES): CCN(CC)C(=O)c1c(Cl)cccc1C(=O)Nc1ccc(C(F)(F)C(F)(F)F)cc1Cl [compound 1540]
- Insecticidal effect (Test Example 1), judged from mortality [1]: A (100)
- Insecticidal effect (Test Example 2), judged from mortality [2, 5]: A (100)
- Insecticidal effect (Test Example 3), judged from mortality [3, 6]: A (100)
